Molecules are shown by their SMILES. Read-outs that look alike come from different tables or passages of the source. Where only a bound is given, the exact number is not on record here.

A word on the IC50: it is the concentration at which inhibition is half-maximal.

The experiment deals with T1, Cu,Zn-SOD (Cu,Zn-superoxide dismutase) (Bos taurus, UniProt P00442).
T1 construct: gene SOD1
Put plainly: SOD kit (xanthine/xanthine oxidase, WST-1 formazan at […] nm) after […] h pre-incubation with chelator. The format is biochemical. On the technique in general: Tetrazolium dyes change colour on reduction, which living cells bring about.

T1 sequence (P00442 2-152): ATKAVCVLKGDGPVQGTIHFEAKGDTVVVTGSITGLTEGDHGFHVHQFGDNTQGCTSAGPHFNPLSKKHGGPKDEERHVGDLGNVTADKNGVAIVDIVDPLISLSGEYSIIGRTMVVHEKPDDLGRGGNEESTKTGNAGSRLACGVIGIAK

In the case of `[S]=[Mo](=[S])([SH])[SH]` [bcTTM, Bis-choline-tetrathiomolybdate], the IC50 was less than 0.2 µM. For `CC(C)(S)[C@@H](N)C(=O)O` [DPA, 3-mercapto-D-valine], where the note is “read-out: IC50”, the IC50 fell in the range of 50 to 100 µM.

Source of the values: article PMC12473319, “TDMQ20 as A Drug Candidate for Wilson’s Disease: Comparison with D-Penicillamine, Trientine, and Tetrathiomolybdate In Vitro and In Mice” (Pharmaceutics, 2025).
